In US4695580A, “Phenylserine derivatives and processes for preparing the same” (Sumitomo Pharmaceuticals Company, Ltd., priority 1983, dated 1987) one finds inhibition data, which are given here for 26 compounds.

Counter-ions that a name gives are not always drawn. Bounds are passed on as bounds.

One assay relates to SRS-A. The assay is described as follows: Anti-SRS-A activity by Magnus method, isolated guinea pig ileum. In kind it is cell-based. The note with it: Cavia porcellus, read-out: Inhibition (anti-SRS-A activity, inhibition rate); for inhibition at 1 µM: drug at 10^-6 M (values marked *); for inhibition at 1 µg/mL: 5 min, drug at 10^-6 g/ml (values without *). Here is the method:
Anti-SRS-A activity of the drugs (the compounds of the present invention) was assayed by using isolated ileum of guinea pig (weighing 300-400 g, male).
SRS-A sample was prepared as follows.
Male albino guinea-pigs were administered by intraperitoneal and subcutaneous injection of 50 mg ovalbumin emulsified with a half amount of Freund's complete adjuvant every other day (total three times). 4 Weeks after the administration lungs were isolated from guinea-pigs and chopped into small pieces. The tissue was placed in Tyrode solution containing indomethacin (1μg/ml) and incubated at 37° C. for 15 min. The incubated solution was then centrifuged and the supernatant fluid was used for the SRS-A sample.
The anti-SRS-A activity was assayed by Magnus method, i.e. a modified method by Eda et al. [cf. Bulletin of Pharmacology in Japan, 66, 194-213 (1970)] using isolated guinea pig ileum. That is, an isolated ileum of guinea pig was hung within an organ bath which was filled with a Tyrode solution containing mepyramine (0.4 μg/ml) and atropine (0.35,/μg/ml) at 37° C. under aeration. The SRS-A sample was given until reproducible contractions were obtained. A solution of the drug (the compounds of the present inventions was added thereto in the final concentration of 10^-6 g/ml or 10^-6 M. After 5 minutes, the SRS-A sample was again acted, and the change of contractile response was measured. Based on the change of contractile response, the anti-SRS-A activity (inhibition rate) was calculated by the following equation: [formula] wherein
a^1 : Contractile response before administration of a drug.
a^2 : Contractile response after administration of a drug.

A further assay deals with T1, 5-lipoxygenase (Cavia porcellus, UniProt A0A286X958).
T1 construct: leucocytes isolated from abdominal cavity of guinea pig; endogenous in cells; host or cells: leucocytes isolated from the abdominal cavity of guinea pig (intact cells)
T1 sequence (A0A286X958 1-674): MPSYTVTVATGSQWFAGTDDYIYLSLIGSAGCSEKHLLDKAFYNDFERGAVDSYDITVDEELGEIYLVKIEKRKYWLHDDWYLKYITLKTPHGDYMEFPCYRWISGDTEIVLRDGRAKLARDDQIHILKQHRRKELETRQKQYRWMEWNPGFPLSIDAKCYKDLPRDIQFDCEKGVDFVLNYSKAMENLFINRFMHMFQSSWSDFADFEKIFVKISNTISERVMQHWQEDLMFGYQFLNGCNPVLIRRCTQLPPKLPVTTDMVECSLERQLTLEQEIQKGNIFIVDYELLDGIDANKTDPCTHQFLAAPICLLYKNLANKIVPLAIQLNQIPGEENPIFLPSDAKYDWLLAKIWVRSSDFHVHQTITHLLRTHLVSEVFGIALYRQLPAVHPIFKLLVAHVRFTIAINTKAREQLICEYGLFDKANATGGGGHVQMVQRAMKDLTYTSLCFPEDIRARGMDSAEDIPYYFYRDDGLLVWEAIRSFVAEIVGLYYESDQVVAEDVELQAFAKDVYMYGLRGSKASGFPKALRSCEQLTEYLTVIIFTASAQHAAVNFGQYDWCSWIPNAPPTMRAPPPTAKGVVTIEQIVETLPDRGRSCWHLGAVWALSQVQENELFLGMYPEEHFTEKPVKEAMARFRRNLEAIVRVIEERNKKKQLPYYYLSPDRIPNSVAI
The assay is described as follows: 5-Lipoxygenase inhibitory activity (inhibition of 5-HETE production) in guinea pig abdominal leucocytes. Format: cell-based. The note with it: 10 μM compound, A 23187, 14C-arachidonic acid, read-out: Inhibition (5-HETE production, inhibition rate). Here is the method: The inhibitory activity was assayed in the same manner as described by J. Harvey et al. That is, leucocytes isolated from abdominal cavity of guinea pig were suspended in Krebs Ringer buffer (KRB, pH 7.4) in a concentration of 2.2×10^7 […]. The leucocytes suspension (935 μl) was preincubated with shaking at 37° C. for 10 minutes, and thereto was added a solution (10 μl) of test drugs (the compounds of the present invention) in dimethylsulfoxide (DMSO) (the final concentration of the compound being 10 μM in the solution). The mixture was incubated for 10 minutes, and then, ^14 C-arachidonic acid (0.1 μCi, 50 μl) (in 5% ethanol/KRB) and A 23187 (J. Pharmacol. Methods, 9, 147-155(1983), 5 μg in 5 μl DMSO) were added thereto, and the mixture was further incubated for 10 minutes. Ice-cooled 0.2M aqueous citric acid solution (100 μl) was added thereto in order to stop the reaction, and then, water (4 ml) was further added thereto. The mixture was twice extracted with ethyl acetate (each 2.5 ml), and the organic layer was distilled to dryness under nitrogen. The resulting residue was dissolved in ethyl acetate and the solution was applied onto a TLC plate. After developing with toluene-dioxane-acetic acid (65:34:1.5 V/V), 5-HETE (5-hydroxyeicosatetraenoic acid) produced by 5-lipoxygenase was measured with TLC scanner. The inhibition rate (%) was calculated by comparing the amount of 5-HETE between the addition and non-addition of a drug by the following equation: [formula] wherein
b^1 : Amount of produced 5-HETE in case of non-addition of a drug.
b^2 Amount of produced 5-HETE in case of addition of a drug.

Broadly, the inhibition is the drop in the measured response relative to a control, in per cent.

Consider `O=C([C@@H](NCCCc1ccccc1)[C@H](O)c1ccc(O)c(O)c1)N1CCCC1` (relative stereo) [Compd. No. 13], for which, in the assay on SRS-A, the inhibition at 1 µM was 100%. As to `CC(CCc1ccccc1)N[C@H](C(=O)N1CCCC1)[C@H](O)c1ccc(O)c(O)c1` (relative stereo) [Compd. No. 19, DL-Threo-3-(3,4-dihydroxyphenyl)-N-(1-methyl-3phenylpropyl)serine pyrrolidine amide], the inhibition at 10 µM at 5-lipoxygenase was greater than 70%. In the assay with SRS-A, the inhibition at 1 µg/mL stood at 100%. Consider `COC(=O)[C@@H](NC(C)CCc1ccccc1)[C@H](O)c1ccc(O)c(O)c1` (relative stereo) [Compd. No. 120, DL-threo-3-(3,4-dihydroxyphenyl)-N-(1-methyl-3-phenylpropyl)serine methyl ester], for which the inhibition at 1 µg/mL with SRS-A stood at 97%. `COC(=O)[C@@H](NC(C)CCc1ccc(OC)cc1)[C@H](O)c1ccc(O)c(O)c1` (relative stereo) [Compd. No. 122, DL-threo-3-(3,4-dihydroxyphenyl)-N-[1-methyl-3-(p-methoxyphenyl)propyl]serine methyl ester]: on 5-lipoxygenase, the inhibition at 10 µM is greater than 70%. Besides, the inhibition at 1 µg/mL with SRS-A was 94%. As to `CCOC(=O)[C@@H](NC(C)CCc1ccccc1)[C@H](O)c1ccc(O)c(O)c1` (relative stereo) [Compd. No. 132, DL-Threo-3-(3,4-dihydroxyphenyl)-N-(1-methyl-3-phenylpropyl)serine ethyl ester], the inhibition at 10 µM at 5-lipoxygenase was greater than 70%. Besides, the inhibition at 1 µg/mL in the assay on SRS-A came out at 82%. For `CC(CCc1ccccc1)N[C@H](C(=O)OC(C)C)[C@H](O)c1ccc(O)c(O)c1` (relative stereo) [Compd. No. 158, DL-threo-3-(3,4-dihydroxyphenyl)-N-(1-methyl-3-phenylpropyl)serine isopropyl ester], in the assay with SRS-A, the inhibition at 1 µg/mL came to 96%. In the case of `CC(C)COC(=O)[C@@H](NC(C)CCc1ccccc1)[C@H](O)c1ccc(O)c(O)c1` (relative stereo) [Compd. No. 170, DL-threo-3-(3,4-dihydroxyphenyl)-N-(1-methyl-3-phenylpropyl)serine isobutyl ester], in the assay on SRS-A, the inhibition at 1 µg/mL worked out at 85%. Turning to `CC(CCc1ccccc1)N[C@H](C(=O)NN)[C@H](O)c1ccc(O)c(O)c1` (relative stereo) [Compd. No. 178, DL-threo-3-(3,4-dihydroxyphenyl)-N-(1-methyl-3-phenylpropyl)serine hydrazide], the inhibition at 1 µg/mL in the assay on SRS-A was determined as 81%. `CC(CCc1ccccc1)N[C@H](CO)[C@H](O)c1ccc(O)c(O)c1` (relative stereo) [Compd. No. 183, DL-threo-1-(3,4-dihydroxyphenyl)-2-(1-methyl-3-phenylpropyl)amino-1,3-propanediol 1/2 oxalate]: the inhibition at 10 µM on 5-lipoxygenase is greater than 70%. Further, the inhibition at 1 µg/mL with SRS-A was 97%. In the case of `CC(CCc1ccccc1)N[C@H](COC(N)=O)[C@H](O)c1ccc(O)c(O)c1` (relative stereo) [Compd. No. 189, DL-threo-1-(3,4-dihydroxyphenyl)-2-(1-methyl-3-phenylpropyl)-amino-3-carbamoyloxypropanol], the inhibition at 1 µg/mL with SRS-A was determined as 98%.

As to `CNC(=O)[C@@H](NC(C)CCc1ccccc1)[C@H](O)c1ccc(O)c(O)c1` (relative stereo) [compound 48], the inhibition at 1 µg/mL in the assay with SRS-A was 100%. Regarding `CC(CCc1ccccc1)N[C@H](C(=O)N1CCc2ccccc21)[C@H](O)c1ccc(O)c(O)c1` (relative stereo) [compound 77], the inhibition at 10 µM at 5-lipoxygenase was greater than 70%. Besides, the inhibition at 1 µM with SRS-A is 96%. Turning to `COC(=O)[C@@H](NC(C)CCC(C)C)[C@H](O)c1ccc(O)c(O)c1` (relative stereo) [compound 142], the inhibition at 10 µM at 5-lipoxygenase is greater than 70%. Further, the inhibition at 1 µg/mL in the assay with SRS-A turned out to be 91%. As to `COC(=O)[C@@H](NC(C)CCc1ccc(O)cc1)[C@H](O)c1ccc(O)c(O)c1` (relative stereo) [compound 143], the inhibition at 1 µg/mL in the assay with SRS-A stood at 83%. Same read-out and setting: under `COC(=O)[C@@H](NC(C)CCCCC(=O)Nc1ccc(C(F)(F)F)cc1)[C@H](O)c1ccc(O)c(O)c1` (relative stereo) [compound 146] stands 94%; under `CCCCc1ccc(NC(=O)CCCCC(C)N[C@H](C(=O)OC)[C@H](O)c2ccc(O)c(O)c2)cc1` (relative stereo) [compound 147], 100%; under `CC(CCc1ccccc1)N[C@H](C(N)=O)[C@H](O)c1ccc(O)c(O)c1` (relative stereo) [compound 177, DL-threo-3-(3,4-dihydroxphenyl)-N-(1-methyl-3-phenylpropyl)serine amide], 86%.

As to `CC(CCc1ccccc1)N[C@H](C(=O)N1CCCC1)[C@H](O)c1ccc(O)c(O)c1` (stereo partly drawn) [Compd. No. 10, L-Threo-3-(3,4-dihydroxyphenyl)-N-(1-methyl-3-phenylpropyl)serine pyrrolidine amide], in the assay with SRS-A, the inhibition at 1 µM was 100%. `COC(=O)[C@H](NC(C)CCc1ccccc1)[C@@H](O)c1ccc(O)c(O)c1` (stereo partly drawn) [Compd. No. 156, D-threo-3-(3,4-dihydroxyphenyl)-N-(1-methyl-3-phenylpropyl)serine methyl ester]: the inhibition at 1 µg/mL in the assay with SRS-A was determined as 90%. Consider `COc1cc(C)c(CCC(C)N[C@H](C(=O)N2CCCC2)[C@H](O)c2ccc(O)c(O)c2)c(C)c1C` (some centres unmarked) [compound 28], for which the inhibition at 1 µM with SRS-A was determined as 94%. On the same count and under the same terms, in the case of `CC(CCc1ccc(F)cc1)N[C@H](C(=O)N1CCCC1)[C@H](O)c1ccc(O)c(O)c1` (some centres unmarked) [compound 29] it was 97%; in that of `CC(CCc1cccc2ccccc12)N[C@H](C(=O)N1CCCC1)[C@H](O)c1ccc(O)c(O)c1` (some centres unmarked) [compound 34], 92%. `CC(CCc1ccco1)N[C@H](C(=O)N1CCCC1)[C@H](O)c1ccc(O)c(O)c1` (some centres unmarked) [compound 35]: in the assay with SRS-A, the inhibition at 1 µM is 87%. The same measure, in the same setting: under `CCCCc1ccc(NC(=O)CCCCC(C)N[C@H](C(=O)N2CCCC2)[C@H](O)c2ccc(O)c(O)c2)cc1` (some centres unmarked) [compound 41] stands 81%. On the same count and under the same terms, under `CC(CCCCC(=O)Nc1ccc(C(F)(F)F)cc1)N[C@H](C(=O)N1CCCC1)[C@H](O)c1ccc(O)c(O)c1` (some centres unmarked) [compound 42] stands 97%; under `COC(=O)[C@@H]1CCCN1C(=O)[C@@H](NC(C)CCc1ccccc1)[C@H](O)c1ccc(O)c(O)c1` (some centres unmarked) [compound 65], 85%.
